The record followed here is patent publication US6093732A, “4-hydroxyquinoline-3-carboxamides and hydrazides as antiviral agents” (Pharmacia & Upjohn Company, priority 1998, dated 2000).

In general, IC50 refers to the concentration needed to halve the response being measured.

What all share (format): biochemical
One test has as its target VZV polymerase (Varicella-zoster virus, UniProt P09252). The experiment in a line: VZV polymerase assay (procedure similar to the HCMV polymerase SPA). Conditions: Table 1, read-out: Antiviral Selective Polymerase IC50 Values, VZV. As for the experimental part: (§1) The HCMV polymerase assay is performed using a scintillation proximity assay (SPA) as described in several references, such as N. D. Cook, et al., Pharmaceutical Manufacturing International, pages 49-53 (1992); K. Takeuchi, Laboratory Practice, September issue (1992); U.S. Pat. No. 4,568,649 (1986); which are incorporated by reference herein. Reactions are performed in 96-well plates. The assay is conducted in 100 μl volume with 5.4 mM HEPES (pH 7.5), 11.7 mM KCl, 4.5 mM MgCl2, 0.36 mg/ml BSA, and 90 nM ^3 H-dTTP. Assays are run with and without CHAPS, (3-[(3-Cholamidopropyl)-dimethylammonio]-1-propane-sulfonate) at a final concentration of 2 mM. HCMV polymerase is diluted in enzyme dilution buffer containing 50% glycerol, 250 mM NaCl, 10 mM HEPES (pH 7.5), 100 μg/ml BSA, and 0.01% sodium azide. The HCMV polymerase, which is expressed in recombinant baculovirus-infected SF-9 cells and purified according to literature procedures, is added at 10% (or 10 μl) of the final reaction volume, i.e., 100 μl. Compounds are diluted in 50% DMSO and 10 μl are added to each well. Control wells contain an equivalent concentration of DMSO. Unless noted otherwise, reactions are initiated via the addition of 6 nM biotinylated poly(dA)-oligo(dT) template/primer to reaction mixtures containing the enzyme, substrate, and compounds of interest. Plates are incubated in a 25° C. or 37° C. H2 O bath and terminated via the addition of 40 μl/reaction of 0.5 M EDTA (pH 8) per well. Reactions are terminated within the time-frame during which substrate incorporation is linear and varied depending upon the enzyme and conditions used, i.e., 30 min. for HCMV polymerase. Ten μl of streptavidin-SPA beads (20 mg/ml in PBS/10% glycerol) are added following termination of the reaction. Plates are incubated 10 min. at 37° C., then equilibrated to room temperature, and counted on a Packard Topcount. Linear regressions are performed and IC50 's are calculated using computer software.
(§2) A modified version of the above HCMV polymerase assay is performed as described above, but with the following changes: Compounds are diluted in 100% DMSO until final dilution into assay buffer. In the previous assay, compounds are diluted in 50% DMSO. 4.5 mM dithiotherotol (DTT) is added to the polymerase buffer. […] Other viral polymerase assays are performed using procedures similar to those described above.

In a further test the target is HSV polymerase (Human herpesvirus 1, UniProt P04293). The experiment in a line: HSV polymerase assay (procedure similar to the HCMV polymerase SPA). Conditions: Table 1, read-out: Antiviral Selective Polymerase IC50 Values, HSV. How it is done:
as §1, §2

Another test concerns the target T1, HCMV polymerase (Human cytomegalovirus, UniProt P08546).
T1 construct: made in house; host or cells: recombinant baculovirus-infected SF-9 cells
The experiment in a line: HCMV polymerase scintillation proximity assay (SPA), modified version. Conditions: CMV polymerase; Table 1; modified assay with 4.5 mM DTT, compounds in 100% DMSO; read-out: Antiviral Selective Polymerase IC50 Values, CMV. The method, boiled down: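 Recombinant polymerase (baculovirus/SF-9) in 5.4 mM HEPES pH 7.5, 11.7 mM KCl, 4.5 mM MgCl2, 0.36 mg/ml BSA, 90 nM 3H-dTTP, ±2 mM CHAPS; started with 6 nM biotinylated poly(dA)-oligo(dT), 25° C or 37° C, EDTA-stopped in linear range (30 min for HCMV). Streptavidin-SPA read; IC50 by linear regression. Modified version: 100% DMSO compound dilution, 4.5 mM DTT added.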

HSV polymerase, sequence (P04293 whole entry): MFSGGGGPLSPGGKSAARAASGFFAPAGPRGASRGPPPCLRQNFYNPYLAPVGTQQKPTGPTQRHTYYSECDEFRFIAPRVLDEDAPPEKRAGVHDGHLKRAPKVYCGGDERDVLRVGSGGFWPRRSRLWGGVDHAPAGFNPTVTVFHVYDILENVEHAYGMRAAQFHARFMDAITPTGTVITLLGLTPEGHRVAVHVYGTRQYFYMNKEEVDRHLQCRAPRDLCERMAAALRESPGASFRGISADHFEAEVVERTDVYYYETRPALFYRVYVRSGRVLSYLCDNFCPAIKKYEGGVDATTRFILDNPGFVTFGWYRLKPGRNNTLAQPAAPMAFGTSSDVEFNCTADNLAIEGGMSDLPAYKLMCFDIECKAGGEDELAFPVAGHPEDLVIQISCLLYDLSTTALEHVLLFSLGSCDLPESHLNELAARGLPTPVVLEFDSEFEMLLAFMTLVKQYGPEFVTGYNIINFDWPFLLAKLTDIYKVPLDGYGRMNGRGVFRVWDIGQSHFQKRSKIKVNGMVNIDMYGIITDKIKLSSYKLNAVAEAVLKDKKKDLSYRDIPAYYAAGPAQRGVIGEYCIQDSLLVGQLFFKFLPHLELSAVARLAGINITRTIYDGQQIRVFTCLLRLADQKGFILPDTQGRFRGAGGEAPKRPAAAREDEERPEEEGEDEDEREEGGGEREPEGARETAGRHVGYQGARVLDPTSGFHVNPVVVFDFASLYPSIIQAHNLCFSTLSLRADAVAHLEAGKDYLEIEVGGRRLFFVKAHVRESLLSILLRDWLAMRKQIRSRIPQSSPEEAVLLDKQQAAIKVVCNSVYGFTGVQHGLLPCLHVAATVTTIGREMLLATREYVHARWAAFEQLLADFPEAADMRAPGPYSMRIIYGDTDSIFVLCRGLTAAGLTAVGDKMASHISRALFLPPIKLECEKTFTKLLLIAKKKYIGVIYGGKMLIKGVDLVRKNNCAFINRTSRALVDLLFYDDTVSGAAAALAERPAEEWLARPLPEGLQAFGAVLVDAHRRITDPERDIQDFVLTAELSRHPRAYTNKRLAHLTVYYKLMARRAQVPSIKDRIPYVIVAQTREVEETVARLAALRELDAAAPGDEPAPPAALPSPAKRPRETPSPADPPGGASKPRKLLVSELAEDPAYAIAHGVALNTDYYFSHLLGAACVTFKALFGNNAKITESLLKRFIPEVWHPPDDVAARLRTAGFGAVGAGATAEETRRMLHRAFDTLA
T1 sequence (P08546 whole entry): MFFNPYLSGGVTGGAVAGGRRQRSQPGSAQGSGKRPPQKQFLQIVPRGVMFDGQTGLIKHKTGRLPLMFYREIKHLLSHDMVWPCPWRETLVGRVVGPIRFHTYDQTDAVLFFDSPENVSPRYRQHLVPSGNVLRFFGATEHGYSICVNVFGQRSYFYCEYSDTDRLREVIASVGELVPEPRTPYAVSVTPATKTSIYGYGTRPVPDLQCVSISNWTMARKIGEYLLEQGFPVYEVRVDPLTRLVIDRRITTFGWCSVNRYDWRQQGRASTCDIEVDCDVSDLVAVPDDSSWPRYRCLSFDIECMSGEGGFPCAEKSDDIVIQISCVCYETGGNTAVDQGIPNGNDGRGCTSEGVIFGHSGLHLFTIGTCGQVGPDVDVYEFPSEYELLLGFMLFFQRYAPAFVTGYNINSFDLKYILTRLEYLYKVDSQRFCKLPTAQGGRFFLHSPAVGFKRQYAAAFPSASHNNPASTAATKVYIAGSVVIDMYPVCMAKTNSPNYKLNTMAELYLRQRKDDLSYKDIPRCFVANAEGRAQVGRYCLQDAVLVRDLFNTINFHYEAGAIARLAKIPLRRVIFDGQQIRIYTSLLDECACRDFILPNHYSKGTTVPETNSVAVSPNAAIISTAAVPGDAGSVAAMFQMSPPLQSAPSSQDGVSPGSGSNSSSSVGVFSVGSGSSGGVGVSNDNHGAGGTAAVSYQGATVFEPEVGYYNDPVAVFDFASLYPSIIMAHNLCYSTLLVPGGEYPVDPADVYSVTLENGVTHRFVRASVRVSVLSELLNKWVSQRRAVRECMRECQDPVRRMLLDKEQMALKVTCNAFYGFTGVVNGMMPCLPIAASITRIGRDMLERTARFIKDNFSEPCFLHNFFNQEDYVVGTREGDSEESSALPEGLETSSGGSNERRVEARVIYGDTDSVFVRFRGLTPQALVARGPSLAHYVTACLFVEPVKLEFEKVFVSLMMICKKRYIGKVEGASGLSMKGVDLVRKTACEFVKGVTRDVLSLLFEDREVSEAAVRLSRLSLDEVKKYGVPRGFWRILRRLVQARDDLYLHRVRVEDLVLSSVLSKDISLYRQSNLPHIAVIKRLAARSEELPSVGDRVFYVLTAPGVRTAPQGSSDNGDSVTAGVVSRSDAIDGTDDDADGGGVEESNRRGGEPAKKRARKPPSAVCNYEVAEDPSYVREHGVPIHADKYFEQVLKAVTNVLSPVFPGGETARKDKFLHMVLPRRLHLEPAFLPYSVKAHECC
VZV polymerase, sequence (P09252 whole entry): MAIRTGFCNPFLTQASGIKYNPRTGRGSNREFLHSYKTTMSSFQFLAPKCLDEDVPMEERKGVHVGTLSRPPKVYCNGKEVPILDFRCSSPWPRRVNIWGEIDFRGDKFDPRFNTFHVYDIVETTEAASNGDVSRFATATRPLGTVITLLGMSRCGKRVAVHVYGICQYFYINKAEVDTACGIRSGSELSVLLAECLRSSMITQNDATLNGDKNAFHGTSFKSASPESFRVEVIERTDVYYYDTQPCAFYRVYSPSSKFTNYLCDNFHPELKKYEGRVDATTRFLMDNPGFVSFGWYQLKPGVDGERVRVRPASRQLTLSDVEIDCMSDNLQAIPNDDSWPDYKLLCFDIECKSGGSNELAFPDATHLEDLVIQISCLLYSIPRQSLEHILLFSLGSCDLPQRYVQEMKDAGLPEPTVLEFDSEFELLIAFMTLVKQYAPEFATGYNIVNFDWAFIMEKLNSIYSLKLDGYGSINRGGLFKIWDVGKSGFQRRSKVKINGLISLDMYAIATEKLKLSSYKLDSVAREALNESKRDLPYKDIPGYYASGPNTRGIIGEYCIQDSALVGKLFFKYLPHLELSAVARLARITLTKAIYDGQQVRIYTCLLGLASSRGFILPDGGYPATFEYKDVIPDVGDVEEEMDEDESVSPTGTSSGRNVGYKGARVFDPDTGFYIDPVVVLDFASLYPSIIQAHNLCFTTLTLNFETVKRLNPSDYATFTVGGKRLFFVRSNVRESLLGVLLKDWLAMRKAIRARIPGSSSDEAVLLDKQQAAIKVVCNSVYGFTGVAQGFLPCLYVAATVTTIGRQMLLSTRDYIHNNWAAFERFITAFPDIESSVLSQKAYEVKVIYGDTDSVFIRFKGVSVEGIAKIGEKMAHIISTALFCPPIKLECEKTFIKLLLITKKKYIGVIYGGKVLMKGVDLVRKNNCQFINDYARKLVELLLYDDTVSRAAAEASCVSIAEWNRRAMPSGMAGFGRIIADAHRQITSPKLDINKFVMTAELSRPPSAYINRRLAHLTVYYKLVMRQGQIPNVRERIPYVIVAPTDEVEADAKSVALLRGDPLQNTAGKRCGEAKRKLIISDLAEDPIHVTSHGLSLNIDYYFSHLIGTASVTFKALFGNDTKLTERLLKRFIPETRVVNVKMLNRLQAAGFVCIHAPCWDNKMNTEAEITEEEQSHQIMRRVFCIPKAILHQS

As to `CS(=O)(=O)Nc1ccc2ncc(C(=O)NCc3ccc(Cl)cc3)c(O)c2c1` [Example 29, N-[(4-Chlorophenyl)methyl]-4-hydroxy-6-[(methylsulfonyl)-amino]-3-quinolinecarboxamide], the IC50 on VZV polymerase amounted to 25.2 µM; on HSV polymerase it was 70.6 µM; at HCMV polymerase, 34.1 µM.

For `O=C(NCc1ccc(Cl)cc1)c1cnc2c(F)c(F)c(F)cc2c1O` [Example 15, N-[(4-Chlorophenyl)methyl]-6,7,8-trifluoro-4-hydroxy-3-quinolinecarboxamide], the IC50 on VZV polymerase was 13.1 µM; on HSV polymerase it was 22 µM; at HCMV polymerase it was 20.8 µM.

For `CC(=O)Nc1ccc2ncc(C(=O)NCc3ccc(Cl)cc3)c(O)c2c1` [Example 31, 6-(Acetylamino)-N-[(4-chlorophenyl)methyl]-4-hydroxy-3-quinolinecarboxamide], the results for the IC50 at VZV polymerase, on HSV polymerase and at HCMV polymerase were 26 µM, 81.5 µM and 26.2 µM, respectively.

On to `O=C(NCc1ccc(Cl)cc1)c1cnc2cc(C(F)(F)F)ccc2c1O` [Example 1, N-[(4-Chlorophenyl)methyl]-4-hydroxy-7-(trifluoromethyl)-3-quinoline-carboxamide], for which the 50% inhibitory concentration (IC50) on VZV polymerase is 13.3 µM; at HSV polymerase it was 35.5 µM; on HCMV polymerase, 38.2 µM.

Take `O=C(NCc1ccc(Cl)cc1)c1cnc2ccc(CN3CCOCC3)cc2c1O` [Example 191, N-(4-Chlorobenzyl)-4-hydroxy-6-(4-morpholinylmethyl)-3-quinolinecarboxamide]: the IC50 amounted to 0.64 µM at VZV polymerase, 0.63 µM on HSV polymerase and 0.5 µM at HCMV polymerase.

For the molecule `N#C/C=C/c1cc(F)c2ncc(C(=O)NCc3ccc(Cl)cc3)c(O)c2c1` [Example 133, N-(4-Chlorobenzyl)-6-[(E)-2-cyanoethenyl]-8-fluoro-4-hydroxy-3-quinolinecarboxamide], the IC50 on VZV polymerase was found to be 2.2 µM; on HSV polymerase, 3.2 µM; at HCMV polymerase, 4 µM.

As for `O=C(NNc1ccc(Cl)cc1)c1cnc2c(F)c(F)c(F)cc2c1O` [Example 16, 6,7,8-Trifluoro-4-hydroxy-3-quinolinecarboxylic acid 2-(4-chlorophenyl)hydrazide], the IC50 on VZV polymerase came out at 1.3 µM; at HSV polymerase, 2.8 µM; on HCMV polymerase it was 2.7 µM.

For `O=C(NCc1ccc(Cl)cc1)c1cnc2ccc(C#CCO)cc2c1O` [Example 134, N-(4-Chlorobenzyl)-4-hydroxy-6-(3-hydroxy-1-propynyl)-3-quinolinecarboxamide], the figures for the IC50 at VZV polymerase, on HSV polymerase and on HCMV polymerase were 0.19 µM, 0.72 µM and 0.9 µM, respectively.

Turning to `O=C(NCc1ccc(Cl)cc1)c1cnc2cc(CCCCO)ccc2c1O` [Example 140, N-(4-Chlorobenzyl)-4-hydroxy-7-(4-hydroxybutyl)-3-quinolinecarboxamide], the IC50 at VZV polymerase was 1 µM; on HSV polymerase, 1.7 µM; at HCMV polymerase, 1.4 µM.

For the molecule `Nc1ccc2c(O)c(C(=O)NCc3ccc(Cl)cc3)cnc2c1` [Example 2, 7-Amino-N-[(4-chlorophenyl)methyl]-4-hydroxy-3-quinolinecarboxamide], the IC50 was 0.6 µM at VZV polymerase, 3.5 µM on HSV polymerase and 5.2 µM at HCMV polymerase.

For `CS(=O)(=O)OCCCc1cc(F)c2ncc(C(=O)NCc3ccc(Cl)cc3)c(O)c2c1` [Example 142, 3-(3-([(4-Chlorobenzyl)amino]carbonyl}-8-fluoro-4-hydroxy-6-quinolinyl)propyl methanesulfonate], the results for the IC50 at VZV polymerase, on HSV polymerase and at HCMV polymerase were 2.1 µM, 2.9 µM and 3.8 µM, respectively.

With `N#CCCc1cc(F)c2ncc(C(=O)NCc3ccc(Cl)cc3)c(O)c2c1` [Example 138, N-(4-Chlorobenzyl)-6-(2-cyanoethyl)-8-fluoro-4-hydroxy-3-quinolinecarboxamide], the IC50 came out at 2 µM on VZV polymerase, 3.5 µM on HSV polymerase and 4.7 µM at HCMV polymerase.

Turning to `O=C(NCc1ccc(Cl)cc1)c1cnc2c(F)c(F)c(F)c(F)c2c1O` [Example 14, N-[(4-Chlorophenyl)methyl]-5,6,7,8-tetrafluoro-4-hydroxy-3-quinolinecarboxamide], the values for the IC50 at VZV polymerase, on HSV polymerase and at HCMV polymerase were 3.6 µM, 7.9 µM and 11.5 µM, respectively.

In the case of `O=C(NCc1ccc(Cl)cc1)c1cnc2c(F)cc(CCCCO)cc2c1O` [Example 99, N-(4-Chlorobenzyl)-8-fluoro-4-hydroxy-6-(4-hydroxybutyl)-3-quinolinecarboxamide], the results for the IC50 at VZV polymerase, on HSV polymerase and on HCMV polymerase were 0.09 µM, 0.2 µM and 0.14 µM, respectively.

For `CC(C)(O)CCc1cc(F)c2ncc(C(=O)NCc3ccc(Cl)cc3)c(O)c2c1` [Example 106, N-(4-Chlorobenzyl)-8-fluoro-4-hydroxy-6-(3-hydroxy-3-methylbutyl)-3-quinolinecarboxamide], the IC50 at VZV polymerase stood at 9.6 µM; on HSV polymerase, 16.4 µM; on HCMV polymerase it was 10.3 µM.

For `Nc1ccc2ncc(C(=O)NCc3ccc(Cl)cc3)c(O)c2c1` [Example 28, 6-Amino-N-[(4-chlorophenyl)methyl]-4-hydroxy-3-quinoline-carboxamide], the values for the IC50 on VZV polymerase, on HSV polymerase and on HCMV polymerase were 8.3 µM, 19.7 µM and 18 µM, respectively.

`O=C(NCc1ccc(Cl)cc1)c1cnc2ccc(OCCO)cc2c1O` [Example 179, N-(4-Chlorobenzyl)-4-hydroxy-6-(2-hydroxyethoxy)-3-quinolinecarboxamide]: the IC50 at VZV polymerase amounted to 0.66 µM; on HSV polymerase it was 1.4 µM; on HCMV polymerase it was 1.8 µM.
